Assay results reported in publication PMC3486420, “In Vitro and In Vivo Characterizations of Chiglitazar, a Newly Identified PPAR Pan-Agonist” (PPAR Research, 2012).

How the values were obtained:
[1] = Tissue distribution of 3H-chiglitazar in rats; format: in vivo, rat; settings: male Wistar rats, single oral dose 12.5 mg kg^−1 3H-labelled, radioactivity AUC0–24
Description: ^3H-chiglitazar was synthesized and provided by the Beijing Institute of Atom Energy with specific activity of 15 Ci mmol^−1 and purity >97%. Tissue distribution of ^3H-chiglitazar in rats was evaluated based on the methods described previously. Briefly, male Wistar rats (~220 g in body weight, 12-week old) were randomly divided into 4 groups (5 per group). After fasted overnight, rats were orally administered with single dose of 12.5 mg kg^−1 of ^3H-chiglitazar (radiation dose 31.7 MBq kg^−1). Rats in different groups were sacrificed at 1.5, 4, 8, and 24 h after dosing. Blood (5–9 mL) was collected via cardiac puncture at the time of sacrifice. […] 1 mL of scintillation fluid was added to each well, and radioactivity was measured by a scintillation counter (Perkin Elmer, Waltham, MA, USA).
Figure 5 Influence on heart weight and tissue distribution of chiglitazar in rats. […] 24 h after the last dosing, animals were sacrificed and the heart weight was evaluated. *P < 0.05 compared with control; n = 5 per group. […] Rats were sacrificed at 1.5, 4, 8, and 24 h after treatment (n = 5 per time point), and various tissues/organs as indicated were taken for radioactivity measurement. The accumulated area under curves through 0 to 24 h (AUC0–24) was calculated based on individual tissue distribution measured at each time point. […] Data are expressed as mean ± SE.

RAW267.4 cells = assay: Gene expression by RT-PCR in RAW267.4 cells; format: cell-based, mouse; settings: 48 h, 10 μM chiglitazar
Description: cDNAs for human retinoid X receptor (hRXR), PPARα, PPARγ, and PPARδ were obtained by reverse transcriptase polymerase chain reaction (RT-PCR) from human liver or adipose tissues. Amplified cDNAs were cloned into pcDNA3.1 expression vector (Invitrogen, Carlsbad, CA, USA). The integrity and fidelity of all constructs made were verified by DNA sequencing. Luciferase reporter plasmids, ACOX promoter for PPARγ and pHD(X3)-luc for PPARα, were kind gifts of Drs. TM McIntyre (University of Utah, USA) and RA Rachubinski (University of Alberta, Canada), respectively. PPRE-luc for PPARδ was constructed based on the previous report by insertion of the annealed oligonucleotides having four copies of the CYP4A6 PPRE (4 × […]) into the upstream of the luciferase coding sequence in pGL3-promoter vector (Promega, Madison, WI, USA). pCMVβGal was purchased from Clontech (Palo Alto, CA, USA). The mouse 3T3-L1 preadipocyte cell line, skeletal muscle C2C12 cell line, and macrophage RAW267.4 cell line and the human osteosarcoma U2OS cell line were obtained from the American Type Culture Collection (ATCC, Rockville, MD, USA). The human hepatoma SMMC-7721 cell line was obtained from the Cell Culture Center of Chinese Academy of Medical Sciences (Beijing, China). Cell lines were cultured in medium of DMEM (3T3-L1, C2C12, and SMMC-7721), RPMI 1640 (RAW267.4), or McCoy's 5A (U2OS), containing 10% fetal bovine serum (FBS), 50 μg/mL streptomycin, and 50 units/mL penicillin at 37°C in a humidified incubator with 5% CO2.
Total RNA was extracted from cells or tissues with an RNeasy minikit (Qiagen, Valencia, CA, USA). The first-strand cDNA was synthesized using the oligo(dT) primers, followed by using SuperScript II reverse transcriptase (Invitrogen) according to the manufacturer's instructions. The PCR amplifications were performed in 10 μL of reaction mixture volume containing 0.8 μL of cDNA, 10 mM Tris-HCl (pH 8.3), 50 mM KCl, 1.5 mM MgCl2, 0.1% Triton X-100, 0.2 mM deoxynucleotide triphosphates, 0.4 μM primers, and 0.25 U of Taq polymerase (TaKaRa Biotechnology Co., Ltd, China). Taq DNA polymerase was added to each tube after a treatment of 2 min at 94°C. This was followed by 22–30 cycles of denaturation (23 s at 94°C), annealing (20 s at 55°C), extension (30 s at 72°C), and a final extension step of 2 min. PCR products were analyzed by electrophoresis on a 1.5% agarose gel stained with ethidium bromide.
Figure 1 In vitro regulation of gene expression by chiglitazar. (a) Endogenous expression of individual PPAR subtypes in cell lines. […]. The expression change of referred genes induced by different compounds was normalized against internal control (36B4 or GAPDH) and then compared with vehicle control treatment. The data shown are averaged from 3 independent experiments.

Wistar rats = assay: Influence in heart weight of Wistar rats, 6-month oral dosing; format: in vivo, rat; settings: for Increase in heart weight: 135 mg kg^−1 (~900 mg/m^2) oral daily, 6 months
Description: Male and female Wistar rats of 6-week old were randomly divided into 4 groups, 5 for each male and female per group. Animals in different groups were orally treated daily with chiglitazar suspended in water at the doses of 15, 45, and 135 mg kg^−1, or vehicle (water), for 6 months. 24 h after the last treatment, animals were sacrificed and the weight of heart from individual animals was weighed.
Figure 5 Influence on heart weight and tissue distribution of chiglitazar in rats. (a) Wistar rats were orally administered daily with chiglitazar at the dose of 15, 45 and 135 mg kg^−1 for 6 months. 24 h after the last dosing, animals were sacrificed and the heart weight was evaluated. *P < 0.05 compared with control; n = 5 per group. (b) Male Wistar rats were orally administered with a single dose of ^3H-chiglitazar at 12.5 mg kg^−1 (radiation dose 31.7 MBq kg^−1). Rats were sacrificed at 1.5, 4, 8, and 24 h after treatment (n = 5 per time point), and various tissues/organs as indicated were taken for radioactivity measurement. The accumulated area under curves through 0 to 24 h (AUC0–24) was calculated based on individual tissue distribution measured at each time point. (c) The time course distribution of chiglitazar in different tissues at individual time point (1.5, 4, 8, 24 h). Data are expressed as mean ± SE.

Compound: O=C(c1ccc(F)cc1)c1ccccc1NC(Cc1ccc(OCCn2c3ccccc3c3ccccc32)cc1)C(=O)O (stereo not drawn) [Chi, 2-[(2-(4-fluorobenzoyl)phenyl)amino]-3-[4-(2-carbazolylethoxy)-phenyl]-propionic acid]
- Tissue distribution: level in kidney, adipose tissue and heart [1]: low levels
- Tissue distribution: level in plasma, liver and pancreas [1]: high levels
- Expression of PPARα and/or PPARδ downstream gene SRA (RAW267.4 cells; 50 μM WY14643, 5 μM 2-Bro, compared with rosiglitazone 10 μM): more significantly upregulated
- Expression of PPARγ downstream gene CD36 (RAW267.4 cells; 10 μM rosiglitazone, vs vehicle): upregulated
- No-effect dose on heart weight (45 mg kg^−1) relative to optimal efficacy dose (10 mg kg^−1) (Wistar rats; Wistar rats): about 4.5 times
- Microscopical examination of weight-increased hearts (Wistar rats; Wistar rats, 135 mg kg^−1, 6 months (data not shown)): minimal to mild myocardial hypertrophy
- Heart weight (Wistar rats; Wistar rats, oral daily 6 months, doses as high as 45 mg kg^−1 (~300 mg/m^2)): did not increase
- Increase in heart weight (Wistar rats; female Wistar rats): about 20%
- Increase in heart weight (Wistar rats; male Wistar rats): ~12%
